Like-named read-outs stand apart in the source and are kept apart here.

For one series, the system named is C2C12 cells. Nature of the series: Mitochondrial respiration (mitochondrial stress test, maximal respiration) in C2C12 cells. The class given is cell-based. As to conditions: 30 µM for 15, 30, or 90 min, vs vehicle-treated cells; 10 mM sodium pyruvate. An excerpt: […]. […] […].
The subject of another series is db/db mice. Briefly: db/db mouse model of Type II diabetes, 10-day daily oral dosing. As to conditions: oral daily 10 days, h-rac-pio 30 mg/kg; for decrease of cytokines IL-1p, IL-6, and TNF-α / decrease of serum amyloid A / effect on non-essential fatty acids (decrease compared with h-rac-pio) / effect on non-fasted blood glucose: d-R-pio 20 mg/kg; for effect on adiponectin / effect on non-essential fatty acids (decrease compared with h-rac-pio) / effect on non-fasted blood glucose: d-S-pio 20 mg/kg. The class given is in vivo. How it is done: Quantitative results were analyzed by statistical methods using, as appropriate, one- or two-way ANOVA or Kruskal-Wallis tests for differences followed by Sidak's, Dunnett's, or Dunn's post-test to determine differences vs. vehicle-treated control animals. All graphs were generated with GraphPad Prism version 6.0.2 (GraphPad Software, Inc., La Jolla, Calif.).

Series [1] can be described thus: Body weight gain in male C57BL/6J mice on a standard diet. The series is classed as in vivo. Particulars: twice daily oral gavage 11 days; overall daily dose h-rac-pio 30 mg/kg, d-S-pio 15 mg/kg, d-R-pio 15 mg/kg. The protocol:
Male C57BL/6J mice (about 28 g body weight) were acclimated singly-housed for one week to a reverse light/dark cycle with free access to water and standard maintenance diet. Animals were then handled daily for one week followed by another 7 days of twice daily dosing with vehicle (0.5% methylcellulose in water) by oral gavage. […] Body weights were measured twice daily, prior to each dosing, to adjust individual dosing volumes to actual body weights.

For series [2] the following is noted: for k RS: enantiomerization rate constant h-R-pio to h-S-pio / k SR: enantiomerization rate constant h-S-pio to h-R-pio: 5 M (sic).
The conditions of series [3]: for k RS: enantiomerization rate constant h-R-pio to h-S-pio / k SR: enantiomerization rate constant h-S-pio to h-R-pio: C57BL/6, mouse, 5 M (sic).
Series [4] concerns the target T1, human recombinant monoamine oxidase B (Homo sapiens, UniProt P27338).
T1 sequence (P27338 1-520): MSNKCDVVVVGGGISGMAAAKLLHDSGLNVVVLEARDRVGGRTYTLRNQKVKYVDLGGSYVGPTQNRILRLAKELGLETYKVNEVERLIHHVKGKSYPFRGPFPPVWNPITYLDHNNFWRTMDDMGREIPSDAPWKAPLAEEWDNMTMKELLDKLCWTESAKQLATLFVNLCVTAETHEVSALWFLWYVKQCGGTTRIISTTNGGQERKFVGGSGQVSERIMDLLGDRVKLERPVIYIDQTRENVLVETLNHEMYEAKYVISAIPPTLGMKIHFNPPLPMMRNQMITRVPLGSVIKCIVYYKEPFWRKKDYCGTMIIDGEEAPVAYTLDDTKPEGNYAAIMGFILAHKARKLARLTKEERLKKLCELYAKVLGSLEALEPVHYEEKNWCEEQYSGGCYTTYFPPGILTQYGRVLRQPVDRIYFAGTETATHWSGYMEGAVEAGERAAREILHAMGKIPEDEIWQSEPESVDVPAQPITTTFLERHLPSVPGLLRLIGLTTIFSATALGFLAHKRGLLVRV
Briefly: Monoamine oxidase B (MAO-B) inhibition, luminescence. The series is classed as biochemical. How it is done: The mixtures were incubated at 22° C. for 5 min. Substrate (D-luciferin derivative) was added, and then the mixture was incubated at 37° C. for 60 min. The reaction was stopped by addition of the detection reagent containing luciferase. Luminescence was read after standing for 60 min at room temperature.
Results were expressed as a percentage of the luminescence of the control (enzyme+substrate). IC50 values were obtained by fitting experimental data (mean % luminescence as function of concentration) to the Hill equation with variable slope using non-linear regression analysis.

`CCc1ccc(CCOc2ccc(CC3SC(=O)NC3=O)cc2)nc1` (racemic) [h-rac-pio, rac-5-({p-[2-(5-Ethyl-2-pyridyl)ethoxy]phenyl}methyl)-1,3-thiazolidine-2,4-dione, reference compound]: the “effect on maximal respiration (oxygen consumption rate)” value (from here on “effect on maximal respiration”) with C2C12 cells is “inhibited maximal respiration”. Further, in the series with db/db mice (vs vehicle), the “decrease of cytokines IL-1p, IL-6, and TNF-α” value is “trending”; the “decrease of serum amyloid A” value was “statistically significant”; the effect on adiponectin entry is “significantly increased”; the effect on insulin entry is on record as “significantly decreased”. Moreover, the “percent body weight difference versus day 1, compared to vehicle” value in series [1] is given as “statistically significant increase”.
Consider `CCc1ccc(CCOc2ccc(C[C@H]3SC(=O)NC3=O)cc2)nc1` [h-R-pio], for which the “k RS: enantiomerization rate constant h-R-pio to h-S-pio” value (from here on “k RS”) came out at 0.447 h⁻¹ in series [2] (human) and 0.694 h⁻¹ in series [3]. The entries for the “k SR: enantiomerization rate constant h-S-pio to h-R-pio” value (“k SR” for short) in series [2] (human) and in series [3] were 0.439 h⁻¹ and 0.867 h⁻¹, respectively.
For `[2H][C@]1(Cc2ccc(OCCc3ccc(CC)cn3)cc2)SC(=O)NC1=O` [d-R-pio, (R)-5-({p-[2-(5-Ethyl-2-pyridyl)ethoxy]phenyl}methyl)-(5-^2H)-1,3-thiazolidine-2,4-dione], the “difference in inhibition efficacy between d-R-pio and d-S-pio” value in series [4] is “greater than 5 fold”. Besides, in the series with C2C12 cells, the “effect on maximal respiration” value is given as “inhibited maximal respiration”. Also, in the series on db/db mice (vs vehicle), the “decrease of cytokines IL-1p, IL-6, and TNF-α” value is on record as “trending”; the “decrease of serum amyloid A” value is given as “statistically significant”. Also, in the series on db/db mice, the “effect on non-essential fatty acids (decrease compared with h-rac-pio)” value is “a similar trend was observed” and the “effect on non-fasted blood glucose” value is “decreased non-fasted blood glucose to approximately the same extent as h-rac-pio”. Also, in series [1], the “percent body weight difference versus day 1, compared to vehicle” value is reported as “did not increase”.
Regarding `CCc1ccc(CCOc2ccc(C[C@@H]3SC(=O)NC3=O)cc2)nc1` [h-S-pio], in series [2] (human), the “k RS” value was 0.434 h⁻¹ and the “k SR” value stood at 0.427 h⁻¹. For the same molecule, in series [3], the “k RS” value was found to be 0.792 h⁻¹ and the “k SR” value was 0.979 h⁻¹.
As for `[2H]C1(Cc2ccc(OCCc3ccc(CC)cn3)cc2)SC(=O)NC1=O` (racemic) [d-rac-pio], in series [2] (human, plasma), the “t1/2 of h-R-pio (RS*) from averaged kRS” value was determined as 96 min and the “t1/2 of h-S-pio (SR*) from averaged kSR” value turned out to be 96 min. Also, in series [3] (mouse, plasma), the “t1/2 of d-S-pio (k=kDSR+kDSS)” value amounted to 36 min, the “t1/2 of h-R-pio (RS*) from averaged kRS” value amounted to 54 min and the “t1/2 of h-S-pio (SR*) from averaged kSR” value stood at 45 min.
Regarding `[2H][C@@]1(Cc2ccc(OCCc3ccc(CC)cn3)cc2)SC(=O)NC1=O` [d-S-pio, (S)-5-({p-[2-(5-Ethyl-2-pyridyl)ethoxy]phenyl}methyl)-(5-^2H)-1,3-thiazolidine-2,4-dione], the “half-life of d-S-pio compared with h-S-pio” value in series [2] (plasma) is reported as “approximately the same as the half-life for h-S-pio”. Besides, the “effect on maximal respiration” value in the series on C2C12 cells was “no significant measurable effect”. For the same molecule, in the series on db/db mice, the “effect on non-essential fatty acids (decrease compared with h-rac-pio)” value is recorded as “a similar trend was observed” and the “effect on non-fasted blood glucose” value is “decreased non-fasted blood glucose to approximately the same extent as h-rac-pio”. Further, the effect on adiponectin entry in the series with db/db mice (vs vehicle) was “significantly increased”. The “percent body weight difference versus day 1, compared to vehicle” value in series [1] is listed as “statistically significant increase”.

The record behind these values is patent US20200390753A1, “COMBINATION THERAPY USING ENANTIOPURE, OXY-SUBSTITUTED, DEUTERIUM-ENRICHED 5-(BENZYL)-5-DEUTERO-THIAZOLIDINE-2,4-DIONES FOR TREATMENT OF MEDICAL DISORDERS” (priority 2015, published 2020).
